US20250064789A1, “KETOAMIDE DERIVATIVES AND PHARMACEUTICAL USES THEREOF” (priority 2022, published 2025)
Like-named read-outs stand apart in the source and are kept apart here.

Legend:
[1] = system: SARS-CoV-1; type: cell-based
[2] = in vivo; type: in vivo, beagle dogs; conditions: for MRT inf: read-out: MRTINF—obs
Description: Male ICR mice (6-8 weeks old, weighing 16-25 g), male beagle dogs (1-2 years old, weighing 9-12 kg), or male cynomolgus monkeys (6-7 years old, weighing 6-8 kg) were randomly divided into groups, with three animals for each group, and a series of test compounds were administered orally (p.o.) or intravenously (i.v.) according to the protocol in following Table 10.
The solution for gavage and intravenous administration was prepared with DMSO/HS15/PEG400/NaCl (5/3/40/52, […]). The administration time was recorded, and for each sample, approximately 0.20 mL of blood was collected by jugular vein blood collection or other appropriate methods at the pre-determined time points. The blood sample was anticoagulated with heparin sodium, and after collection, the blood was placed on ice. The sample was centrifuged to separate the plasma within 1 h (centrifugation conditions: 6800 g, 6 min, 2-8° C.). Plasma samples were stored in a −80° C. freezer before analysis. The grouping and blood collection time points are shown in Table 4, with 3 animals at each time point.

[3] = biological target: human cathepsin K (Homo sapiens (Human), UniProt P43235); experiment: Human protease biochemical activity assay: Cathepsin K inhibitor screening kit
Chain of human cathepsin K (P43235 115-329): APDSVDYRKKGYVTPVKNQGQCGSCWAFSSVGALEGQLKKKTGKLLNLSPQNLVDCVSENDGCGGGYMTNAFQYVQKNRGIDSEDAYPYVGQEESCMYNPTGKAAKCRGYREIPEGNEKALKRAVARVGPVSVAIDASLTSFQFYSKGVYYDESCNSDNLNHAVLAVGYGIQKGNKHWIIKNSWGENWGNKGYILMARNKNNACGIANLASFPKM
Description: (§1) The biochemical activity of compounds against human proteases was determined using Cathepsin K inhibitor screening kit (K150-100), Cathepsin B inhibitor screening kit (K147-100), Thrombin activity testing kit (K373-100), Caspase-2 inhibitor screening kit (K152-100), and Cathepsin D inhibitor screening kit (K148-100) according to the instructions of the kits (Biovision, USA). All experiments were carried out in triplicate. All experimental data were analyzed using GraphPad Prism software.

[4] = biological target: hERG potassium ion channels (Homo sapiens (Human), UniProt Q12809); experiment: hERG potassium current, whole cell patch clamp in HEK-293-hERG cells; conditions: 30 μM
Chain of hERG potassium ion channels (Q12809 whole entry, looked up): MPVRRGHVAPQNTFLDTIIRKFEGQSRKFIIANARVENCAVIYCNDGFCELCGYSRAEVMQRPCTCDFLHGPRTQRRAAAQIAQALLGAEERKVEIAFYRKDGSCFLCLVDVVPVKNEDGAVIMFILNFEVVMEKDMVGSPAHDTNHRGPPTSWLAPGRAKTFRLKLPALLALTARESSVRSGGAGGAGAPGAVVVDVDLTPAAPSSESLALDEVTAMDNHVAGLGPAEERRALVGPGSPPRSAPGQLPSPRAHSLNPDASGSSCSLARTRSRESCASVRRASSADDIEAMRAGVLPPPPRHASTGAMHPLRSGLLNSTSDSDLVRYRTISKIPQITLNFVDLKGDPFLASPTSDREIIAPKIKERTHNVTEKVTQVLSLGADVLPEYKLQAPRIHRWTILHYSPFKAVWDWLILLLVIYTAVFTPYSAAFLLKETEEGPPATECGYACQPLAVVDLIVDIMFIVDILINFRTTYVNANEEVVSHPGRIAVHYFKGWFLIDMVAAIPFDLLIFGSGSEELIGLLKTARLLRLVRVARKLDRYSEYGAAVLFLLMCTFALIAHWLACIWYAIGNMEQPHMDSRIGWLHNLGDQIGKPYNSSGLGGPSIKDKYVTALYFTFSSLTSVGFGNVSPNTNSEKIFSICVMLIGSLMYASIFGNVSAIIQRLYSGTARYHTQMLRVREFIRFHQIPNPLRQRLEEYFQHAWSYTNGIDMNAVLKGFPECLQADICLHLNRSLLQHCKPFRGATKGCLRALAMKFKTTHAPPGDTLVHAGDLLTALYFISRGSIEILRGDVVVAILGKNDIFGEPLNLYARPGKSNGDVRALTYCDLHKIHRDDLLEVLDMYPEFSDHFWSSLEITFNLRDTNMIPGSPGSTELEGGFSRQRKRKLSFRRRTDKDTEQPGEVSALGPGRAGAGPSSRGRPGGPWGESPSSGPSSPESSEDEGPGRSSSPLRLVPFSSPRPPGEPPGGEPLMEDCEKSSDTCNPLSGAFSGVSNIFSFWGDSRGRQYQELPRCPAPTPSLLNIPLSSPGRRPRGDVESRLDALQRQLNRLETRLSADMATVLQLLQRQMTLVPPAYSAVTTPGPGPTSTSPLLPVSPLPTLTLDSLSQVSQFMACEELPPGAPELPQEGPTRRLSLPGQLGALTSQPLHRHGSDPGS

[5] = system: SARS-CoV-2 Omicron (B.1.1.529) BA.2; experiment: Antiviral activity by plaque method in Vero E6-TMPRSS2 cells: SARS-CoV-2 Omicron BA.2; type: cell-based
[6] = biological target: human cathepsin D (Homo sapiens (Human), UniProt P07339); experiment: Human protease biochemical activity assay: Cathepsin D inhibitor screening kit
Chain of human cathepsin D (P07339 65-412): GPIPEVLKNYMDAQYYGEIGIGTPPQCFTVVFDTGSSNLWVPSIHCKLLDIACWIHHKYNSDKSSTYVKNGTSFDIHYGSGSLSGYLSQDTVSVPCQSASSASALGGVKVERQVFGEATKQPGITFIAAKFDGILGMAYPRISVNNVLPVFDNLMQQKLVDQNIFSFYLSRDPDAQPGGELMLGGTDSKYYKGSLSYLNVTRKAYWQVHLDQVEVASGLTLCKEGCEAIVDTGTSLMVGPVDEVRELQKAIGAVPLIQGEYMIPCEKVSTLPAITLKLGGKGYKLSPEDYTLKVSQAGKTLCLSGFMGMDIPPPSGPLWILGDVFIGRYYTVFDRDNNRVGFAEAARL
Description: as §1

[7] = in vivo; conditions: male, Sprague-Dawley, rat
[8] = biological target: human thrombin (Homo sapiens (Human), UniProt P00734); experiment: Human protease biochemical activity assay: Thrombin activity testing kit
Description: as §1

[9] = in vivo; type: in vivo, ICR mice; conditions: for MRT inf: read-out: MRTINF—obs
[10] = system: MERS-CoV; type: cell-based
[11] = in vivo; type: in vivo, cynomolgus monkeys; conditions: for MRT inf: read-out: MRTINF—obs
[12] = system: SARS-CoV-2 Omicron (B.1.1.529) BA.5; experiment: Antiviral activity by plaque method in Vero E6-TMPRSS2 cells: SARS-CoV-2 Omicron BA.5; type: cell-based
[13] = system: SARS-CoV-2 Omicron (B.1.1.529) BA.2; design: species or system K18-hACE2 transgenic mice; conditions: mouse, in vivo
[14] = Metabolic stability using human liver microsomes; type: in vitro ADME; conditions: pH 7.4, NADPH, 37° C., read-out: Human liver microsomes T1/2
[15] = Preliminary evaluation of in vivo safety (acute and general toxicity test); conditions: p.o.; 1000 mg/kg single-dose; 800, 600, 400 mg/kg twice a day for 14 consecutive days
[16] = biological target: human cathepsin B (Homo sapiens (Human), UniProt P07858); experiment: Human protease biochemical activity assay: Cathepsin B inhibitor screening kit
Description: as §1

[17] = biological target: human caspase 2 (Homo sapiens (Human), UniProt P42575); experiment: Human protease biochemical activity assay: Caspase-2 inhibitor screening kit
Chain of human caspase 2 (P42575 170-325): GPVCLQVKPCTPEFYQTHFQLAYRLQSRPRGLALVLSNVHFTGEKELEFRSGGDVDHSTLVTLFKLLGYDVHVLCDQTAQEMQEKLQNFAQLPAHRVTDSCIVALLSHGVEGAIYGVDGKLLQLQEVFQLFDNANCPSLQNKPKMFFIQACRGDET
Chain of human caspase 2 (P42575 348-452): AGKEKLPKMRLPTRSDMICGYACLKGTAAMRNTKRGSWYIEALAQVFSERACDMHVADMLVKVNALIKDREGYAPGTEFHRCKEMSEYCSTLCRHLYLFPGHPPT
Description: as §1

[18] = male, dog, in vivo, po, beagle dogs, p.o. 10 mg/kg
[19] = male, mouse, in vivo, iv, ICR mice, i.v. 1 mg/kg
[20] = male, cynomolgus monkey, in vivo, iv, cynomolgus monkeys, i.v. 1 mg/kg

COC[C@@H](NC(=O)C1CCCC(F)(F)C1)C(=O)N[C@H](Cc1ccccc1)C(=O)C(=O)NCc1nccs1 (stereo partly drawn) [Compound 398, N—((R)-1-(((R)-3,4-dioxo-1-phenyl-4-((thiazole-2-ylmethyl)amino)butan-2-yl)amino)-3-methoxy-1-oxopropan-2-yl)-3,3-difluorocyclohexane-1-formamide]
anti-viral activity, times higher than Nirmatrelvir (PF-07321332) [1]: 17.14 times | Vssobs ([2]; beagle dogs, i.v. 1 mg/kg): 1419.64 ± 160.26 mL/kg | pharmacokinetic properties in beagle dogs (in words) ([2]; i.v. 1 mg/kg, p.o. 10 mg/kg): good pharmacokinetic properties | MRT inf ([2]; male, dog, in vivo, iv, beagle dogs, i.v. 1 mg/kg): 0.47 ± 0.05 h | Tmax [2, 18]: 1 h | MRT inf [2, 18]: 2.14 ± 0.18 h | IC50 [3]: > 100 µM | The average inhibition rate on hERG current [4]: 1.28% | anti-viral activity, times higher than Nirmatrelvir (PF-07321332) [5]: 2.82 times | IC50 [6]: > 100 µM | MRT inf ([7]; iv, 1 mg/kg): 2.34 ± 0.22 h | Tmax ([7]; iv, 1 mg/kg): 0.08 h | MRT inf ([7]; po, 10 mg/kg): 6.6 ± 0.89 h | Tmax ([7]; po, 10 mg/kg): 4 ± 2 h | IC50 [8]: > 100 µM | pharmacokinetic properties in mice (in words) ([9]; i.v. 1 mg/kg, p.o. 150 mg/kg): good pharmacokinetic properties | Tmax [9, 19]: 4.8 min | MRT inf [9, 19]: 0.17 ± 0.03 h | MRT inf ([9]; male, mouse, in vivo, po, ICR mice, p.o. 150 mg/kg): 3.62 ± 1.18 h | anti-viral activity, times higher than Nirmatrelvir (PF-07321332) [10]: 1.79 times | Vssobs ([11]; cynomolgus monkeys, i.v. 1 mg/kg): 2065.80 ± 374.39 mL/kg | pharmacokinetic properties in cynomolgus monkeys (in words) ([11]; i.v. 1 mg/kg, p.o. 10 mg/kg): good pharmacokinetic properties | Tmax [11, 20]: 4.8 min | clearance [11, 20]: 2000 ± 257 mL/min/kg | MRT inf [11, 20]: 0.9 ± 0.18 h | MRT inf ([11]; male, cynomolgus monkey, in vivo, po, cynomolgus monkeys, p.o. 10 mg/kg): 4.71 ± 0.89 h | anti-viral activity, times higher than Nirmatrelvir (PF-07321332) [12]: 4.00 times | infectious viral load in the lungs by plaque assay (in words) [13]: effectively inhibited the production of infectious viral particles in the lungs | inhibition of viral subgenome mRNA (sgRNA) in the lungs [13]: 337 times | lung histopathology, H&E staining (in words) [13]: scattered inflammatory cell infiltration was occasionally observed | reduction of sgRNA copies in the lungs [13]: 12 times | reduction of sgRNA copy in the lungs compared with mice treated with Nirmatrelvir [13]: four times | reduction of vRNA copies in the lungs [13]: 16 times | reduction of vRNA copy in the lungs compared with mice treated with Nirmatrelvir [13]: four times | reduction of viral genomic RNA (vRNA) in the lungs [13]: 179 times | half-life at 1 µM [14]: 35.3 min | body weight and general condition during the administration period [15]: 1. During the administration period, no abnormal body | IC50 [16]: > 100 µM | IC50 [17]: > 100 µM
